Test results as given in patent US20190033294A1, “METHODS OF SCREENING DRUGS FOR CANCER TREATMENT USING CELLS GROWN ON A FIBER-INSPIRED SMART SCAFFOLD” (UNIVERSITY OF SOUTH FLORIDA, priority 2016, published 2019).
Structures can show the parent of a compound that is named as a salt. Where two headings read alike, the source gives them in different places. Starred links: 1 amine or outer side, 2 acyl side, 3 side chain; linkers in the order of their positions; H or OH if unused. Positions of bridges follow the written chain, without caps; N, C: chain ends. Non-standard residues stand in square brackets, D forms with d. Residues, ends and D or L forms follow the SMILES beside them. Chains are numbered I, II in the order given. Actinocin(9to1) = Cc1c2oc3c(C)ccc(C(=O)[*:1])c3nc-2c(C(=O)[*:2])c(N)c1=O; NMeV = CN[C@H](C(=O)O)C(C)C; Sar = CNCC(=O)O

Assays:
[1] = test system: HT-29 tumoroids; assay: CellTiter-Glo viability, tumoroids on 3D fibrous scaffold; details: scaffold culture; nine drugs at 0.1-20 μM, 72 hours
Description: HT-29 cells were cultured in the 3D fibrous scaffold from day 1 to day 7, at which point the nine FDA-approved anticancer drugs were individually added to the cells at concentrations of 0.1, 1, 10, and 20 μM. The cells were incubated for an additional 72 hours, at which point viability of the cells was quantitated using Celltiter-Glo assay (Promega) according to the manufacturer's protocol. Raw luminescence values of the treated groups were normalized to the average of the untreated controls and graphed in GraphPad Prism.
HT-29 cells were either grown in the standard 2-dimensional (2D) monolayer culture or in a 3-dimensional (3D) culture system using a novel fibrous scaffold. […] The monolayer cells and the 3D tumoroids were independently treated with increasing concentrations of nine FDA approved anti-cancer drugs. After 72 hours post-treatment a Presto Blue Cell Viability Assay (for monolayer) and CellTiter-Glo Viability Assay (for tumoroids) were used to quantitate the drug-induced cell death. The drug treated viability readings were normalized to the viability readings from untreated control.

[2] = test system: HT-29 cells; assay: Presto Blue cell viability, 2D monolayer; details: monolayer culture; nine drugs at 0.1-20 μM, 72 hours
Description: HT-29 cells were cultured in 2D monolayer for 24 hours. After 24 hours, the nine FDA-approved anticancer drugs were individually added to the cells at concentrations of 0.1, 1, 10, and 20 μM, and the cells were incubated for 72 hours, at which point viability of the cells was quantitated using Presto Blue assay (Life Technologies) according to the manufacturer's protocol. Raw fluorescence values of the treated groups were normalized to the average of the control and graphed in GraphPad Prism.
HT-29 cells were cultured in 2D monolayer for 24 hours. After 24 hours, the nine FDA-approved anticancer drugs were individually added to the cells at concentrations of 0.1, 1, 10, and 20 μM, and the cells were incubated for 72 hours, at which point viability of the cells was quantitated using Presto Blue assay (Life Technologies) according to the manufacturer's protocol. Raw fluorescence values of the treated groups were normalized to the average of the untreated controls and graphed in GraphPad Prism.
HT-29 cells were either grown in the standard 2-dimensional (2D) monolayer culture or in a 3-dimensional (3D) culture system using a novel fibrous scaffold. […] The monolayer cells and the 3D tumoroids were independently treated with increasing concentrations of nine FDA approved anti-cancer drugs. After 72 hours post-treatment a Presto Blue Cell Viability Assay (for monolayer) and CellTiter-Glo Viability Assay (for tumoroids) were used to quantitate the drug-induced cell death. The drug treated viability readings were normalized to the viability readings from untreated control. The percent viability was used to calculate the IC50 values of all the nine drugs in HT-29 cells.

[3] = test system: MCF-7/dox cells; assay: Presto-blue cell viability, monolayer culture; details: for potency in high throughput screening: NCI Oncology set, 4 point log-dose 0.1 to 100 μM, 72 hrs
Description: (§4) (B) MCF-7 and MCF-7/dox cells were cultured on or on scaffold for 6 days and then cells were treated with increasing concentration of Doxorubicin. Forty-eight hrs post-treatment, cell viability was analyzed using presto-blue as per manufacturer's instructions. The % cell death was analyzed and the IC50 calculated using Graph Pad Prism. Data are represented as Mean±SEM of three independent experiments performed in triplicates (*p<0.05).
(§5) (A) MCF-7 and (B) MCF-7/dox cells were cultured on monolayer and then treated with increasing concentration of compounds from NCI Approved Oncology Drugs Set VII. Forty-eight hrs post-treatment, cell viability was analyzed using presto-blue as per manufacturer's instructions. The % cell death was analyzed and the IC50 calculated using Graph Pad Prism. Data are represented as Mean of experiments performed in triplicates.
(§6) To conduct a high through put screening for compounds that induce cell death in breast cancer, the FDA-approved Oncology Diversity set was obtained from NCI in 96 well plate format with each well containing 20 μl of 10 mM drug stock. All different cell lines were cultured either in regular 96 wells plate without scaffold (served as monolayer) and with FiSS (scaffold culture) in complete medium. […] Drugs were added in triplicates with varying concentrations. The cells were incubated for 72 hrs in a humidified atmosphere under 5% CO2 at 37° C., then cell viability was measured using Presto-blue (Fisher Scientific). […] MCF-7 ad MCF-7/dox were used in a monolayer in a 96 well plate, and then treated with a NCI Oncology diversity set containing FDA-approved anti-cancer drugs. Each drug was used in a 4 point log-dose from 0.1 to 100 μM. Untreated cells were used as control and the cell death was estimated at the end of 72 hrs post-treatment.

[4] = test system: MCF-7/dox tumoroids; assay: Presto-blue cell viability, tumoroids on FiSS scaffold
Description: (§7) (A) MCF-7 and MCF-7/dox cells were cultured on the scaffold for 6 days and then visualized using Nuc-blue. (B) MCF-7 and MCF-7/dox cells were cultured on or on scaffold for 6 days and then cells were treated with increasing concentration of Doxorubicin. Forty-eight hrs post-treatment, cell viability was analyzed using presto-blue as per manufacturer's instructions. The % cell death was analyzed and the IC50 calculated using Graph Pad Prism. Data are represented as Mean±SEM of three independent experiments performed in triplicates (*p<0.05).
(§8) MCF-7 and MCF-7/dox cells were cultured on monolayer or on scaffold in normoxia or hypoxia for 6 days. At the end of culture period, the monolayer cells and tumoroids were treated with increasing concentration of Actinomycin D. Forty-eight hrs post-treatment, cell viability was analyzed using presto-blue as per manufacturer's instructions. The % cell death was analyzed and the IC50 calculated using Graph Pad Prism. Data are represented as Mean±SEM of three independent experiments performed in triplicates (*p<0.05).
(§9) To conduct a high through put screening for compounds that induce cell death in breast cancer, the FDA-approved Oncology Diversity set was obtained from NCI in 96 well plate format with each well containing 20 μl of 10 mM drug stock. All different cell lines were cultured either in regular 96 wells plate without scaffold (served as monolayer) and with FiSS (scaffold culture) in complete medium. For scaffold culture, 75% medium was carefully removed and replaced with 150 μl of fresh medium every alternate day. After five/six days of scaffold culture, cells were stained with NucBlue (Fisher Scientific) to check if tumoroids had formed. Drugs were added in triplicates with varying concentrations. The cells were incubated for 72 hrs in a humidified atmosphere under 5% CO2 at 37° C., then cell viability was measured using Presto-blue (Fisher Scientific).

[5] = test system: MCF-7 cells; assay: Presto-blue cell viability, monolayer culture; details: for potency in high throughput screening: NCI Oncology set, 4 point log-dose 0.1 to 100 μM, 72 hrs
Description: as §4, §5, §6

[6] = test system: Second generation MCF-7 tumoroids; assay: Cell Titer Glo viability of second generation tumoroids; type: cell-based, human; details: 48 hr treatment
Description: (§1) MCF-7 and MCF-7/dox were allowed to form tumoroids on scaffold for 6 days following which they were exposed to Actinomycin D for 24 hrs. At the end of 24 hrs the tumoroids were dissociated and processed for either western blotting (A) or real-time RT-PCR (B). Sox2 protein and transcript levels were analyzed and normalized to HPRT (C) Second generation MCF-7 tumoroids were cultured in a 96 well plate for 6 days. Tumoroids were treated with increasing concentrations of Actinomycin D on day 4 in groups of 4 wells. After a 48 hr treatment, cell viability was assayed using Cell Titer Glo(Promega) on day 6. Viability was calculated as a percent of control untreated wells and graphed using Graph Pad Prism software. (D) Tumoroids were treated with Actinomycin D for 48 hr. Following treatment tumoroids were dissociated and cells were co-stained using FITC conjugated CD44 antibody and Alexa Fluor-647 conjugated CD24 antibody. CD44^highCD24^low stem-like populations in MCF7 tumoroids were assessed by flow cytometer. Data was collected using a BD FACS Canto 2 flow cytometer.

[7] = test system: MCF-7 tumoroids; assay: Presto-blue cell viability, tumoroids on FiSS scaffold
Description: as §7, §8, §9

[8] = test system: MDA-MB-231 cells; assay: Presto-blue cell viability, breast cancer cell panel; details: read-out: MDA-MB-231 (IC50); Table 1, validation of hits in breast cancer cell panel
Description: (§10) All different cell lines were cultured either in regular 96 wells plate without scaffold (served as monolayer) and with FiSS (scaffold culture) in complete medium. For scaffold culture, 75% medium was carefully removed and replaced with 150 μl of fresh medium every alternate day. After five/six days of scaffold culture, cells were stained with NucBlue (Fisher Scientific) to check if tumoroids had formed. Drugs were added in triplicates with varying concentrations. The cells were incubated for 72 hrs in a humidified atmosphere under 5% CO2 at 37° C., then cell viability was measured using Presto-blue (Fisher Scientific).

[9] = test system: Sox2 in MCF-7 tumoroids; assay: Sox2 expression in tumoroids after drug treatment (western blot / RT-PCR); type: cell-based, human
Description: as §1
(§2) MCF-7 and MCF-7/dox cells were seeded as monolayer and 3D tumoroid cultures in 96 well plates. […] Collagenase was used to detach the cells from the plate/scaffold platform. The cell pellet was resuspended in RIPA buffer and vortexed for 30 min followed by centrifugation at 4° C. at 13000 rpm to collect the protein extract. Protein content was determined by using BCA method and followed for western blot procedure. Antibodies for Nanog, Oct 4a, Sox2, and GAPDH/HPRT were obtained from Cell Signaling.
(§3) To determine the effects of Actinomycin D on the Sox2 protein levels in both MCF-7 and MCF-7/dox cell lines, MCF7 wt and MCF7-dox cells were seeded as monolayer and 3D tumoroid cultures (both in controls and cobalt chloride (CoCl2) scaffold cultures) in 96 well plates. […] Collagenase was used to detach the cells from the plate/scaffold platform. The cell pellet was then dissolved in trizol and RNA was isolated. RT-PCR was performed using 2 step process namely 1) cDNA synthesis using DNAase-1 treated RNA and 2) PCR was performed using primers of the gene of interest. […] The decrease in Sox2 expression was 2 fold in both the cell lines tested when compared to the control untreated tumoroids (2.05 vs. 0.75 pixel density in MCF-7 and 1.05 vs. 0.5 pixel density in MCF-7/dox) (FIG. 8B). […] Actinomycin D targets and down-regulates the expression of Sox2 resulting in depletion of stem-like cell population, which hampers the breast cancer cell's ability to initiate spheroids.

[10] = test system: Sox2 in MCF-7/dox tumoroids; assay: as above; type: cell-based, human
Description: as §1, §2, §3

[11] = test system: CD44highCD24low cells in MCF-7 tumoroids; assay: Flow cytometry of CD44highCD24low stem-like population in tumoroids; type: cell-based, human; details: 48 hr treatment, compared to untreated controls
Description: as §1
To further investigate the potential of the FiSS for use in cancer drug discovery by characterizing the BCSCs within the tumoroids, MCF-7 cells were seeded onto scaffolds in 6 well plates at 240,000 cells per well. Cells were cultured for 6 days in RPMI media to form primary tumoroids. […]

[12] = test system: BT474 cells; assay: Presto-blue cell viability, breast cancer cell panel; details: read-out: BT474 (IC50); Table 1, validation of hits in breast cancer cell panel
Description: as §10

[13] = read-out: MCF7-DOX (IC50), Table 1, validation of hits in breast cancer cell panel
[14] = read-out: MCF7-WT (IC50), Table 1, validation of hits in breast cancer cell panel

In the case of Nc1nc2nc[nH]c2c(=S)[nH]1 [6-thioguanine], the “rank as inhibitor of HT-29 cell viability” value (“rank as inhibitor” below) [1] is reported as “least potent inhibitors” and the “rank as inhibitor” value [2] is reported as “least potent inhibitors”.
For Cc1c2oc3c(C)ccc(C(=O)N[C@@H]4C(=O)N[C@H](C(C)C)C(=O)N5CCC[C@H]5C(=O)N(C)CC(=O)N(C)[C@@H](C(C)C)C(=O)O[C@@H]4C)c3nc-2c(C(=O)N[C@@H]2C(=O)N[C@H](C(C)C)C(=O)N3CCC[C@H]3C(=O)N(C)CC(=O)N(C)[C@@H](C(C)C)C(=O)O[C@@H]2C)c(N)c1=O [Actinomycin D] (I: T[dV]P[Sar][NMeV] / II: T[dV]P[Sar][NMeV]; ester I:1-I:C, II:1-II:C; linker I:N-II:N via Actinocin(9to1)), the IC50 ([3]; MCF-7/dox monolayer, 48 hrs post-treatment, mean±SEM) was 0.037 ± 0.021 µM, the “potency in high throughput screening” value ([3]; MCF-7/dox monolayer) was “high potency” and the IC50 [3, 13] was 0.05 ± 0.018 µM. It also gave an IC50 ([4]; MCF-7/dox tumoroids on scaffold, hypoxic conditions (CoCl2)) of 2.24 ± 0.46 µM, an IC50 ([4]; MCF-7/dox tumoroids on scaffold, normoxia, 6 days culture, 48 hrs treatment) of 1.66 ± 0.06 µM and an IC50 ([5]; MCF-7 monolayer, 48 hrs post-treatment, mean±SEM) of 0.07 ± 0.006 µM. The “potency in high throughput screening” value ([5]; MCF-7 monolayer) was “high potency”, the IC50 [5, 14] was 0.05 ± 0.01 µM and the IC50 [6] was 0.029 µM. For the same compound, the IC50 ([7]; MCF-7 tumoroids on scaffold, hypoxic conditions (CoCl2)) was 1.04 ± 0.07 µM, the IC50 ([7]; MCF-7 tumoroids on scaffold, normoxia, 6 days culture, 48 hrs treatment) was 0.78 ± 0.25 µM and the IC50 [8] was 0.03 ± 0.01 µM. The Sox2 expression ([9]; MCF-7 tumoroids treated 24 hrs at concentration based on IC50, untreated control 2.05) was 0.75 pixel density, the “decrease in Sox2 expression” value ([9]; MCF-7 tumoroids vs control untreated tumoroids) was 2 fold and the Sox2 expression ([10]; MCF-7/dox tumoroids treated 24 hrs at concentration based on IC50, untreated control 1.05) was 0.5 pixel density. The “decrease in Sox2 expression” value ([10]; MCF-7/dox tumoroids vs control untreated tumoroids) was 2 fold, the CD44highCD24low population [11] was “decreased” and the IC50 [12] was 0.24 ± 0.03 µM.
CO[C@@]12[C@H](COC(N)=O)C3=C(C(=O)C(C)=C(N)C3=O)N1C[C@@H]1N[C@@H]12 [Mitomycin C] was tested, and the “potency in high throughput screening” value ([3]; MCF-7/dox monolayer) was “high potency”, the IC50 [3, 13] was 0.12 ± 0.01 µM and the “potency in high throughput screening” value ([5]; MCF-7 monolayer) was “high potency”. It also gave an IC50 [5, 14] of 0.17 ± 0.06 µM, an IC50 [8] of 0.03 ± 0.01 µM and an IC50 [12] of 0.03 ± 0.004 µM.
For N.N.[Cl][Pt][Cl] [cisplatin], the “rank as inhibitor” value [1] was “least potent inhibitors” and the “rank as inhibitor” value [2] was “least potent inhibitors”.
For Nc1ccn([C@@H]2O[C@H](CO)[C@@H](O)[C@@H]2O)c(=O)n1 [cytarabine], the “rank as inhibitor” value [1] was “least potent inhibitors” and the “rank as inhibitor” value [2] was “least potent inhibitors”.
With COc1cccc2c1C(=O)c1c(O)c3c(c(O)c1C2=O)C[C@@](O)(C(C)=O)C[C@@H]3O[C@H]1C[C@H](N)[C@H](O)[C@H](C)O1 [daunorubicin (hydrochloride)] the “rank as inhibitor” value [1] was “most potent inhibitors” and the “rank as inhibitor” value [2] was “most potent inhibitors”.
In the case of COc1cccc2c1C(=O)c1c(O)c3c(c(O)c1C2=O)C[C@@](O)(C(=O)CO)C[C@@H]3O[C@H]1C[C@H](N)[C@H](O)[C@H](C)O1 [doxorubicin], the IC50 ([3]; Homo sapiens, MCF7-DOX, 48 h) is reported as 4.4 ± 0.28 µM, the “fold more resistant than MCF-7” value ([3]; MCF-7/dox vs MCF-7 in monolayer) is reported as 24 fold and the IC50 ([4]; Homo sapiens, MCF7-DOX) is reported as 23.1 ± 5.35 µM. The IC50 ([5]; Homo sapiens, MCF7, 48 h) was 0.18 ± 0.008 µM and the IC50 ([7]; Homo sapiens, MCF7) was 1.31 ± 0.27 µM.
For COc1cccc2c1C(=O)c1c(O)c3c(c(O)c1C2=O)C[C@@](O)(C(=O)CO)C[C@@H]3O[C@H]1C[C@H](N)[C@@H](O)[C@H](C)O1 [epirubicin (hydrochloride)], the “rank as inhibitor” value [1] was “most potent inhibitors” and the “rank as inhibitor” value [2] was “most potent inhibitors”.
